The subject of the assay is SNU719 derived xenograft tumour. Kind of assay: SNU719 xenograft, selumatinib and TIG-001 in vivo. Also noted: species or system NRG mice. The procedure:
FIG. 19: Assessment of therapeutic efficacy of dual combination of selumatinib and allogeneic EBV-specific cytotoxic T cells in vivo. (A) The impact of the dual combination of selumatinib and allogeneic T cells (TIG-001) on the outgrowth of EBV-positive SNU719 xenografts in NRG mice was assessed. Tumour-bearing mice were treated with two doses of HLA-matched T cells (2×10^7 T cells per dose per mouse indicated by black arrow) and selumatinib (12.5 mg/Kg) orally for continuous 14 days, either individually or in combination. The growth of each xenograft is represented as the mean tumour area±SD from n=9 mice/group. (B) Gross morphology of the tumours isolated from the mice of indicated treatment groups. (C) Representation of tumour weight described in (B) from the mice of indicated treatment groups. The data are represented as the mean±SD from n=3 mice per group. P-values were calculated using one-way ANOVA. (D) Representation of viable percentage of tumour infiltrates observed across individually treated allogeneic T cells (TIG-001) and in combination with selumatinib as determined by CD45, CD3 and CD8 expression using flow cytometry. P-values were calculated using Student T test. (E) Kaplan-Meier overall survival analysis of the mice bearing EBV-associated tumours as described in (A) following individual and combination treatment of selumatinib and allogeneic T cells. The animals' survival (n=6 mice/group) was monitored over the indicated period of time and statistical significance was analysed by log-rank test: ns=not significant, *p<0.05, **p<0.01, ***p<0.001 and ****p<0.0001.
In next set of experiments, we wanted to investigate the effect of the above described small molecules in combination of HLA matched allogeneic EBV-specific T cells in vivo. We used the combination of selumatinib and HLA-matched T cell product (TIG-001) to treat SNU719 derived xenograft tumour model in female NRG mice. Once the xenograft reached the size of ˜25 mm^2, we treated the mice with two infusion of TIG-001 (2×10^7 cells per infusion) individually and in combination with daily dosage selumatinib (12.5 mg/kg), administered orally for 14 days. […] Next, we phenotyped the infiltration of the human origin lymphocytes in these tumours using flow cytometry.

Structures are written as SMILES.

In the case of `Cn1cnc2c(F)c(Nc3ccc(Br)cc3Cl)c(C(=O)NOCCO)cc21` [selumetanib], under “combination with TIG-001 vs individually treated T cell group”, the “number of viable CD45+CD3+CD8+ cells in tumours” value was “significantly more”. Besides, for the setting “dual combination with TIG-001 vs individual treatment group”, the survival rate result was “better survival rate”. The “size of the tumours” value (dual combination with TIG-001 vs individual treatment, when control reached 150 mm^2) is given as “significantly smaller”. In addition, the tumour progression result (selumatinib 12.5 mg/kg orally 14 days plus two infusions of TIG-001 (2×10^7 cells) vs individual treatment) is listed as “significant reduction”.
